Literature values, collected in patent US8263630B2, “1,2,3-triazoles as 11-beta hydroxysteroid dehydrogenase type I inhibitors” (Bristol-Myers Squibb Company, priority 2008, dated 2012).

Molecular target: T1, 11beta-HSD1 (Homo sapiens, UniProt P28845)
T1 construct: host or cells: human patients (liver), in vivo
Details: mildly overweight individuals with type 2 diabetes; seven day treatment; versus placebo

T1 sequence (P28845 whole entry): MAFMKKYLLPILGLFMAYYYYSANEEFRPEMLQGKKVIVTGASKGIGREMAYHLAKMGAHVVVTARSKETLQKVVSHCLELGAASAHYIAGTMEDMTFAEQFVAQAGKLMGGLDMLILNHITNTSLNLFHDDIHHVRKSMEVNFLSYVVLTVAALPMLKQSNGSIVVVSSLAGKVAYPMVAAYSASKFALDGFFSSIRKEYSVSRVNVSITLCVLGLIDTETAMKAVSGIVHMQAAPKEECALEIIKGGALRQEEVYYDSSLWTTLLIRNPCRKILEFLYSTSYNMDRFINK

hepatic glucose production: decrease in hepatic glucose production
Structure (SMILES): CC1(C)[C@@H](OC(=O)CCC(=O)O)CC[C@]2(C)[C@H]3C(=O)C=C4[C@@H]5C[C@@](C)(C(=O)O)CC[C@]5(C)CC[C@@]4(C)[C@]3(C)CC[C@@H]12 [carbenoxolone]
